Test results taken from ChEMBL document CHEMBL5252592, “Design, synthesis, and biological activity evaluation of novel tubulin polymerization inhibitors based on pyrimidine ring skeletons” (Bioorg Med Chem Lett, 2023).

Tests used:
Format in all cases: functional, cell-based
[1] = tested on: HepG2; test: Antiproliferative activity against human HepG2 cells assessed as inhibition of cell growth
[2] = tested on: Y79; test: Antiproliferative activity against human Y79 cells assessed as inhibition of cell growth
[3] = tested on: U-937; test: Antiproliferative activity against human U-937 cells assessed as inhibition of cell growth
[4] = tested on: A549; test: Antiproliferative activity against human A549 cells assessed as inhibition of cell growth

Structure (SMILES) | IC50 [1] [µM] | IC50 [3] [µM] | IC50 [4] [µM] | IC50 [2] [µM]
COc1cc(Nc2cc(-c3ccc4c(c3)OCCO4)nc(N)n2)cc(OC)c1OC | > 10 | > 10 | > 10 | > 10
COc1cc(Nc2cc(-c3ccc4c(c3)OCO4)ncn2)cc(OC)c1OC | > 10 | > 10 | > 10 | > 10
COc1cc(Nc2cc(-c3coc4ccccc34)nc(N)n2)cc(OC)c1OC | 1.97 | 1.4 | 1.68 | > 10
COc1cc(Nc2ccnc(-c3ccc4c(c3)OCO4)n2)cc(OC)c1OC | > 10 | > 10 | > 10 | > 10
COc1cc(Nc2nccc(-c3cc4ccccc4o3)n2)cc(OC)c1OC | 1.22 | 0.34 | 2.29 | > 10
COc1cc(Nc2cc(-c3ccc4occc4c3)ncn2)cc(OC)c1OC | > 10 | > 10 | > 10 | > 10
COc1cc(Nc2cc(-c3ccc4cc[nH]c4c3)nc(N)n2)cc(OC)c1OC | 2.51 | 2.12 | 1.92 | > 10
COc1cc(Nc2cc(-c3cc4ccccc4o3)ncn2)cc(OC)c1OC | > 10 | > 10 | > 10 | > 10
COc1cc(Nc2nccc(-c3ccc4cc[nH]c4c3)n2)cc(OC)c1OC | 0.37 | 0.12 | 0.85 | > 10
COc1cc(Nc2cc(-c3ccc4[nH]c5ccccc5c4c3)ncn2)cc(OC)c1OC | > 10 | 3.95 | 3.03 | > 10
COc1cc(Nc2cc(-c3csc4ccccc34)ncn2)cc(OC)c1OC | > 10 | > 10 | > 10 | > 10
COc1cc(Nc2cc(-c3cc4ccccc4s3)nc(N)n2)cc(OC)c1OC | > 10 | > 10 | > 10 | > 10
COc1cc(Nc2ccnc(-c3ccc4[nH]c5ccccc5c4c3)n2)cc(OC)c1OC | 3.77 | 1.31 | 3.88 | > 10
COc1cc(Nc2cc(-c3cccc4c3OCO4)nc(N)n2)cc(OC)c1OC | > 10 | > 10 | > 10 | > 10
COc1cc(Nc2ccnc(-c3cc4ccccc4s3)n2)cc(OC)c1OC | > 10 | > 10 | > 10 | > 10
COc1cc(Nc2cc(-c3csc4ccccc34)nc(N)n2)cc(OC)c1OC | > 10 | > 10 | > 10 | > 10
COc1cc(Nc2ccnc(-c3ccc4ncccc4c3)n2)cc(OC)c1OC | > 10 | > 10 | > 10 | > 10

Continued, in another order:

IC50 [1] [µM] | IC50 [3] [µM] | IC50 [4] [µM] | Structure (SMILES) | IC50 [2] [µM]
1.48 | 0.9 | 3.12 | COc1cc(Nc2nccc(-c3ccc4[nH]c5ccccc5c4c3)n2)cc(OC)c1OC | > 10
> 10 | > 10 | > 10 | COc1cc(Nc2ccnc(-c3ccc4cc[nH]c4c3)n2)cc(OC)c1OC | > 10
0.47 | 0.26 | 0.73 | COc1cc(Nc2nccc(-c3ccc4c(c3)CCO4)n2)cc(OC)c1OC | 0.6
> 10 | > 10 | > 10 | COc1cc(Nc2cc(-c3coc4ccccc34)ncn2)cc(OC)c1OC | > 10
2.41 | 0.9 | 1.4 | COc1cc(Nc2ccnc(-c3coc4ccccc34)n2)cc(OC)c1OC | > 10
4.38 | 2.41 | 4.42 | COc1cc(Nc2cc(-c3ccc4occc4c3)nc(N)n2)cc(OC)c1OC | > 10
> 10 | > 10 | > 10 | COc1cc(Nc2cc(-c3ccc4ncccc4c3)ncn2)cc(OC)c1OC | > 10
3.98 | 1.78 | > 10 | COc1cc(Nc2nccc(-c3csc4ccccc34)n2)cc(OC)c1OC | > 10
> 10 | > 10 | > 10 | COc1cc(Nc2cc(-c3cc4ccccc4s3)ncn2)cc(OC)c1OC | > 10
> 10 | > 10 | > 10 | COc1cc(Nc2cc(-c3ccc4c(c3)CCO4)ncn2)cc(OC)c1OC | > 10
> 10 | > 10 | > 10 | COc1cc(Nc2cc(-c3cc4ccccc4o3)nc(N)n2)cc(OC)c1OC | > 10
1.77 | 0.37 | 3.17 | COc1cc(Nc2nccc(-c3ccc4c(c3)OCO4)n2)cc(OC)c1OC | > 10
> 10 | > 10 | > 10 | COc1cc(Nc2ccnc(-c3ccc4c(c3)CCO4)n2)cc(OC)c1OC | > 10
> 10 | > 10 | > 10 | COc1cc(Nc2ccnc(-c3ccc4occc4c3)n2)cc(OC)c1OC | > 10
5.01 | 1.54 | 3.06 | COc1cc(Nc2ccnc(-c3csc4ccccc34)n2)cc(OC)c1OC | > 10
> 10 | 7.17 | > 10 | COc1cc(Nc2nccc(-c3ccc4sc5ccccc5c4c3)n2)cc(OC)c1OC | > 10
0.84 | 0.97 | 1.76 | COc1cc(Nc2nccc(-c3ccc4ncccc4c3)n2)cc(OC)c1OC | > 10
4.19 | 3.52 | 3.83 | COc1cc(Nc2nccc(-c3coc4ccccc34)n2)cc(OC)c1OC | > 10
> 10 | > 10 | > 10 | COc1cc(Nc2ccnc(-c3cc4ccccc4o3)n2)cc(OC)c1OC | > 10
0.79 | 0.04 | 1.76 | COc1cc(Nc2nccc(-c3ccc4occc4c3)n2)cc(OC)c1OC | > 10
> 10 | > 10 | > 10 | COc1cc(Nc2ccnc(-c3ccc4c(c3)OCCO4)n2)cc(OC)c1OC | > 10
> 10 | > 10 | > 10 | COc1cc(Nc2cc(-c3ccc4c(c3)CCO4)nc(N)n2)cc(OC)c1OC | > 10
> 10 | > 10 | > 10 | COc1cc(Nc2cc(-c3ccc4c(c3)OCCO4)ncn2)cc(OC)c1OC | > 10
0.24 | 0.12 | 0.46 | COc1cc(Nc2nccc(-c3cc4ccccc4s3)n2)cc(OC)c1OC | > 10
> 10 | > 10 | > 10 | COc1cc(Nc2cc(-c3ccc4cc[nH]c4c3)ncn2)cc(OC)c1OC | > 10
